US6447786B1, “Blocking expression of virulence factors in S. aureus” (New York University, priority 1994, dated 2002)
No end group written: not given here.

Assays:
Format in all cases: cell-based
[1] = system: RNAIII transcription of various S. aureus strains
[2] = system: RNAIII transcription of S. aureus RN8463
[3] = system: RNAIII transcription of S. aureus RN6607
[4] = system: agr transcription of S. aureus RN6390B

Substance | S. aureus strains tested in which the agr response is inhibited [1] | Effect of purified peptide on RNAIII transcription [2] | Effect of purified peptide on RNAIII transcription [3] | Effect of purified peptide on RNAIII transcription [4]
DICNAYF [S. lugdunensis pheromone] | 5 of 6 |  |  | 
GVNACSSLF [peptide from RN6607, peptide purified from supernatant of strain with cloned agrBD genes of RN6607] |  | inhibitor effect | activator effect | inhibitor effect
YINCDFLL [peptide from RN8463, peptide purified from supernatant of strain with cloned agrBD genes of RN8463] |  | activator effect | inhibitor effect | inhibitor effect
YSTCDFIM [activator peptide] |  | inhibitor effect | inhibitor effect | activator effect
